Test results as given in the NIST ThermoML archive (doi:10.1016/j.jct.2012.01.005).
± gives the expanded uncertainty stated by the source.

Columns and labels:
[1] = Liquid; for mass density: 298.15 K, 101.33 kPa, Buoyancy - hydrostatic balance
[2] = refractive index (Na D-line) (dimensionless); details: 298.15 K; 101.33 kPa; Liquid; Standard Abbe refractometry

CCCC(=O)OCC1CO1 (stereo not drawn) [glycidyl butyrate]
Details	mass density [kg/m3]	refractive index
[1]	1047 ± 10	–
[2]	–	1.429 ± 0.002

[1], Closed cell (Static) method
Details	vapor or sublimation pressure [kPa]
407.85 K	15.74 ± 1.2
420.25 K	23.87 ± 1.2
427.85 K	29.87 ± 1.3
434.15 K	36.41 ± 1.3
439.15 K	41.34 ± 1.3
444.25 K	46.67 ± 1.3
449.15 K	55.99 ± 2.8
449.25 K	54.4 ± 1.3
453.85 K	62.67 ± 1.3
458.15 K	69.6 ± 1.3
460.45 K	74.67 ± 1.3
464.55 K	82.67 ± 1.3
466.55 K	87.33 ± 1.3
467.15 K	88.66 ± 4.1
468.75 K	93.33 ± 1.4
471.15 K	100 ± 1.4

ClCC1CO1 (stereo not drawn) [1-chloro-2,3-epoxypropane]
Details	mass density [kg/m3]	refractive index
[1]	1175.9 ± 12	–
[2]	–	1.434 ± 0.002

[1], Visual
Details	vapor or sublimation pressure [kPa]
370.95 K	55.99 ± 2.1
384.15 K	88.66 ± 3.4
389.35 K	100 ± 4.2
